Test results taken from patent US10280159B2 (AbbVie Deutschland GmbH & Co. KG, priority 2015, dated 2019).
pEC50: −log10 of the molar value.

Legend:
Type in all cases: cell-based
human S1PR1 = target: T1, human S1PR1 (Homo sapiens, UniProt P21453); test: Intracellular Ca2+ release (FLIPR) agonist potency, S1P1; conditions: recombinant CHO-K1 cells expressing human S1PR1, aequorin, Gq/i5; Calcium 5 FLIPR; read-out: S1P1 EC50
T1 construct: host or cells: CHO-K1
Procedure: (§1) Agonistic activity was measured using the method described below.
(§2) Intracellular Ca^2+ Release
(§3) Agonist potency and intrinsic activity was assessed by measurement of intracellular Ca^2+ release. Recombinant CHO-K1 cells (Euroscreen, Brussels, Belgium) expressing human S1PR5, S1PR1, S1PR3 or S1PR4 receptors, aequorin, and GTP binding protein Gq/i5 were cultured using a medium containing nutrient mixture F-12 Ham (Sigma-Aldrich) with 10% FBS, and 100 μg/mL gentamicin and equilibrated at 5% CO2.
(§4) Phospho-fingolimod was used as positive control. Antagonists were pre-incubated for 10 min with cells before addition of the agonist (phospho-fingolimod at EC80). Measurements were performed using a fluorometric imaging plate reader FLIPR®tetra (Molecular Devices). Agonist at the human S1P receptors were characterized by deducing EC50 (potency) values from a nonlinear fit to the measured fluorescence raw data after normalization to the reference agonist (phospho-fingolimod) curve.

human S1PR5 = target: T2, human S1PR5 (Homo sapiens, UniProt Q9H228); test: Intracellular Ca2+ release (FLIPR) agonist potency, S1P5; conditions: recombinant CHO-K1 cells expressing human S1PR5, aequorin, Gq/i5; Calcium 5 FLIPR; read-out: S1P5 EC50 range
T2 construct: host or cells: CHO-K1
T2 sequence (Q9H228 whole entry): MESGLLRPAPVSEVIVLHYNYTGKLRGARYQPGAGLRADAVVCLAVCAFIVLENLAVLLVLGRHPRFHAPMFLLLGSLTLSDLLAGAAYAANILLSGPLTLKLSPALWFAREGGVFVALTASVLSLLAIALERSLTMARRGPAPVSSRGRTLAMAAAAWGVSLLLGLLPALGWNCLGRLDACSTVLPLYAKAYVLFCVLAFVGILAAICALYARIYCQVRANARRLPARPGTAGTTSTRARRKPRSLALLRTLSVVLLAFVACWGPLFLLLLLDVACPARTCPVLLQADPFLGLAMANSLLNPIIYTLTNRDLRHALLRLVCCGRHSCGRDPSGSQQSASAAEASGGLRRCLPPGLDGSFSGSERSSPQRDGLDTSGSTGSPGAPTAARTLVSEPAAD
Procedure: as §1, §2, §3, §4

human S1PR4 = target: T3, human S1PR4 (Homo sapiens, UniProt O95977); test: Intracellular Ca2+ release (FLIPR) agonist potency, S1P4; conditions: recombinant CHO-K1 cells expressing human S1PR4, aequorin, Gq/i5; Calcium 5 FLIPR; read-out: S1P4 EC50
T3 construct: host or cells: CHO-K1
T3 sequence (O95977 1-384): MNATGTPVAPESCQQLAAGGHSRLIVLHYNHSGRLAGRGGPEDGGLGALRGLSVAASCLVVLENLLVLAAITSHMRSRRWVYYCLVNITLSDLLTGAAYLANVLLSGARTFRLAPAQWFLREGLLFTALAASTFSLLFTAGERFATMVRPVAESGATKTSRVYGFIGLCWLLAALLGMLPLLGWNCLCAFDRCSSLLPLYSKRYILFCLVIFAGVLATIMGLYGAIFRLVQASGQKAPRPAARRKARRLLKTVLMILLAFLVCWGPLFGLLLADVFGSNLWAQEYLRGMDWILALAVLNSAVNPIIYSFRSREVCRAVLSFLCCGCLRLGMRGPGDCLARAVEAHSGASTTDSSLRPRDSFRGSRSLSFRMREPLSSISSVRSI
Procedure: as §1, §2, §3, §4

T1 sequence (P21453 whole entry): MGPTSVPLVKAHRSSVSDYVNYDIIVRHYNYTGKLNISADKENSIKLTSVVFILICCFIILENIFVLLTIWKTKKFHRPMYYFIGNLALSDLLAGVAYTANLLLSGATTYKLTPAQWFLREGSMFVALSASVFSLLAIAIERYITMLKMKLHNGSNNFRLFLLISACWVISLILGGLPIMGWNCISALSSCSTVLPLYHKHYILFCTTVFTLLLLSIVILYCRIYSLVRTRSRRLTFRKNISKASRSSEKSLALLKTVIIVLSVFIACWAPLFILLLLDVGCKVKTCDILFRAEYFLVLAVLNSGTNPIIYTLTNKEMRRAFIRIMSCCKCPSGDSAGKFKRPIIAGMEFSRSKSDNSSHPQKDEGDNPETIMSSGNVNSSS

| Compound | pEC50 (human S1PR1) | pEC50 (human S1PR5) | pEC50 (human S1PR4) |
| --- | --- | --- | --- |
| O=C(O)C1CN(C2COc3cc(OCc4ccc(C(F)(F)F)cc4)ccc3C2)C1 (centres unmarked) [Compound 57, 1-(7-((4-(trifluoromethyl)benzyl)oxy)chroman-3-yl)azetidine-3-carboxylic acid] | < 6.00 | 5.00 to 6.00 | < 6.00 |
| Cc1cccc(COc2ccc3c(c2)OCC(N2CC(C(=O)O)C2)C3)c1 (centres unmarked) [Compound 58, 1-(7-((3-methylbenzyl)oxy)chroman-3-yl)azetidine-3-carboxylic acid] | < 6.00 | 5.00 to 6.00 | < 6.00 |
| O=C(O)C1CN(C2COc3cc(OCc4cccc(C(F)(F)F)c4)ccc3C2)C1 (centres unmarked) [Compound 59, 1-(7-((3-(trifluoromethyl)benzyl)oxy)chroman-3-yl)azetidine-3-carboxylic acid] | < 6.00 | 6.00 to 7.00 | > 6.00 |
| O=C(O)C1CN(C2COc3cc(OCc4c(F)cccc4F)ccc3C2)C1 (centres unmarked) [Compound 60, 1-(7-((2,6-difluorobenzyl)oxy)chroman-3-yl)azetidine-3-carboxylic acid] | < 6.00 |  | < 6.00 |
| O=C(O)C1CN(C2COc3cc(OCc4c(F)cccc4Cl)ccc3C2)C1 (centres unmarked) [Compound 61, 1-(7-((2-chloro-6-fluorobenzyl)oxy)chroman-3-yl)azetidine-3-carboxylic acid] | < 6.00 | 6.00 to 7.00 | < 6.00 |
| O=C(O)C1CN(C2COc3cc(OCc4ccccc4C(F)(F)F)ccc3C2)C1 (centres unmarked) [Compound 62, 1-(7-((2-(trifluoromethyl)benzyl)oxy)chroman-3-yl)azetidine-3-carboxylic acid] | < 6.00 | 7.00 to 8.00 | < 6.00 |
| O=C(O)C1CN(C2COc3cc(OCc4ccccc4Cl)ccc3C2)C1 (centres unmarked) [Compound 63, 1-(7-((2-chlorobenzyl)oxy)chroman-3-yl)azetidine-3-carboxylic acid] | < 6.00 | 6.00 to 7.00 | < 6.00 |
| O=C(O)COC1CCc2cc(OCc3cc(Cl)ccc3C(F)(F)F)ccc2C1 (centres unmarked) [Compound 153, 2-[6-[[5-chloro-2-(trifluoromethyl)phenyl]methoxy]tetralin-2-yl]oxyacetic acid] | < 6.00 |  |  |
| O=C(O)CCOC1CCc2cc(OCc3ccccc3C(F)(F)F)ccc2C1 (centres unmarked) [Compound 178, 3-[6-[[2-(trifluoromethyl)phenyl]methoxy]tetralin-2-yl]oxypropanoic acid] | < 6.00 | 5.00 to 6.00 |  |
| O=C(O)CCOC1CCc2cc(OCc3cccc(Cl)c3)ccc2C1 (centres unmarked) [Compound 187, 3-[6-[(3-chlorophenyl)methoxy]tetralin-2-yl]oxypropanoic acid] | < 6.00 |  | < 6.00 |
| O=C(O)CCOC1CCc2cc(OCc3cccc(C(F)(F)F)c3)ccc2C1 (centres unmarked) [Compound 193, 3-[6-[[3-(trifluoromethyl)phenyl]methoxy]tetralin-2-yl]oxypropanoic acid] | < 6.00 |  | > 6.00 |
| Cc1ccccc1COc1ccc2c(c1)CCC(OCC(=O)O)C2 (centres unmarked) [Compound 197, 2-[6-(o-tolylmethoxy)tetralin-2-yl]oxyacetic acid] | < 6.00 |  | > 6.00 |
| O=C(O)COC1CCc2cc(OCc3ccc(C(F)(F)F)cc3)ccc2C1 (centres unmarked) [Compound 202, 2-[6-[[4-(trifluoromethyl)phenyl]methoxy]tetralin-2-yl]oxyacetic acid] | < 6.00 |  | < 6.00 |
| O=C(O)COC1CCc2cc(OCc3ccccc3F)ccc2C1 (centres unmarked) [Compound 215, 2-[6-[(2-fluorophenyl)methoxy]tetralin-2-yl]oxyacetic acid] | < 6.00 | 5.00 to 6.00 |  |

Other lines, results leading:

| pEC50 (human S1PR1) | pEC50 (human S1PR5) | pEC50 (human S1PR4) | Compound |
| --- | --- | --- | --- |
| < 6.00 | 7.00 to 8.00 | < 6.00 | O=C(O)C1CN(C2COc3cc(OCc4c(Cl)cccc4Cl)ccc3C2)C1 (single isomer, unassigned) [Compound 144, 1-(7-((2,6-dichlorobenzyl)oxy)chroman-3-yl)azetidine-3-carboxylic acid] |
| < 6.00 | 6.00 to 7.00 | < 6.00 | O=C(O)C1CN(C2COc3cc(OCc4c(Cl)cccc4Cl)ccc3C2)C1 (single isomer, unassigned) [Compound 145, 1-(7-((2,6-dichlorobenzyl)oxy)chroman-3-yl)azetidine-3-carboxylic acid] |
| < 6.00 | > 8.00 | > 6.00 | CCc1cccc(F)c1COc1ccc2c(c1)OCC(N1CC(C(=O)O)C1)C2 (single isomer, unassigned) [Compound 146, 1-(7-((2-ethyl-6-fluorobenzyl)oxy)chroman-3-yl)azetidine-3-carboxylic acid] |
| < 6.00 | > 8.00 | > 6.00 | CCc1cccc(F)c1COc1ccc2c(c1)OCC(N1CC(C(=O)O)C1)C2 (single isomer, unassigned) [Compound 147, 1-(7-((2-ethyl-6-fluorobenzyl)oxy)chroman-3-yl)azetidine-3-carboxylic acid] |
| < 6.00 | 6.00 to 7.00 | < 6.00 | CCc1cccc(Cl)c1COc1ccc2c(c1)CCC(OCC(=O)O)C2 (single isomer, unassigned) [Compound 239] |
| < 6.00 | 7.00 to 8.00 | < 6.00 | CCc1cccc(Cl)c1COc1ccc2c(c1)CCC(OCC(=O)O)C2 (single isomer, unassigned) [Compound 240] |
| < 6.00 | 5.00 to 6.00 | < 6.00 | O=C(O)C1CN(C2COc3cc(OCc4ccccc4F)ccc3C2)C1 (centres unmarked) [Compound 3, 1-(7-((2-fluorobenzyl)oxy)chroman-3-yl)azetidine-3-carboxylic acid] |
| < 6.00 | 7.00 to 8.00 | < 6.00 | O=C(O)C1CN(C2COc3cc(C#Cc4cccc(F)c4F)ccc3C2)C1 (centres unmarked) [Compound 26, 1-(7-((2,3-difluorophenyl)ethynyl)chroman-3-yl)azetidine-3-carboxylic acid] |
| < 6.00 | 6.00 to 7.00 | < 6.00 | O=C(O)C12CC1CCN2C1CCc2cc(OCc3c(Cl)cccc3Cl)ccc2C1 (centres unmarked) [Compound 36, 2-(6-((2,6-dichlorobenzyl)oxy)-1,2,3,4-tetrahydronaphthalen-2-yl)-2-azabicyclo[3.1.0]hexane-1-carboxylic acid] |
| < 6.00 | 6.00 to 7.00 | < 6.00 | CC(C)C(NC1CCc2cc(OCc3c(Cl)cccc3Cl)ccc2C1)C(=O)O (centres unmarked) [Compound 37, 2-((6-((2,6-dichlorobenzyl)oxy)-1,2,3,4-tetrahydronaphthalen-2-yl)amino)-3-methylbutanoic acid] |
| < 6.00 | 6.00 to 7.00 | < 6.00 | O=C(O)C1CN(C2COc3cc(C#CC4CCCCC4)ccc3C2)C1 (centres unmarked) [Compound 39, 1-(7-(cyclohexylethynyl)chroman-3-yl)azetidine-3-carboxylic acid] |
| < 6.00 | 6.00 to 7.00 | > 6.00 | Cc1cccc(C#Cc2ccc3c(c2)OCC(N2CC(C(=O)O)C2)C3)c1 (centres unmarked) [Compound 43, 1-(7-((3-(methyl)phenyl)ethynyl)chroman-3-yl)azetidine-3-carboxylic acid] |
| > 6.00 | 6.00 to 7.00 | < 6.00 | CCOc1ccc(C#Cc2ccc3c(c2)OCC(N2CC(C(=O)O)C2)C3)cc1 (centres unmarked) [Compound 45, 1-(7-((4-ethoxyphenyl)ethynyl)chroman-3-yl)azetidine-3-carboxylic acid] |
| < 6.00 | 5.00 to 6.00 | < 6.00 | O=C(O)C1CN(C2COc3cc(OCc4ccc(Cl)cc4)ccc3C2)C1 (centres unmarked) [Compound 46, 1-(7-((4-chlorobenzyl)oxy)chroman-3-yl)azetidine-3-carboxylic acid] |
| < 6.00 | 6.00 to 7.00 | > 6.00 | O=C(O)C1(CNC2COc3cc(OCc4c(Cl)cccc4Cl)ccc3C2)CC1 (centres unmarked) [Compound 49, 1-(((7-((2,6-dichlorobenzyl)oxy)chroman-3-yl)amino)methyl)cyclopropanecarboxylic acid] |
| < 6.00 |  | < 6.00 | O=C(O)C1CN(C2COc3cc(OCc4cccc(F)c4F)ccc3C2)C1 (centres unmarked) [Compound 51, 1-(7-((2,3-difluorobenzyl)oxy)chroman-3-yl)azetidine-3-carboxylic acid] |
| < 6.00 | 5.00 to 6.00 | < 6.00 | O=C(O)C1CN(C2COc3cc(OCc4cc(Cl)ccc4Cl)ccc3C2)C1 (centres unmarked) [Compound 52, 1-(7-((2,5-dichlorobenzyl)oxy)chroman-3-yl)azetidine-3-carboxylic acid] |
| < 6.00 | 6.00 to 7.00 | < 6.00 | Cc1cccc(F)c1COc1ccc2c(c1)OCC(N1CC(C(=O)O)C1)C2 (centres unmarked) [Compound 53, 1-(7-((2-fluoro-6-methylbenzyl)oxy)chroman-3-yl)azetidine-3-carboxylic acid] |
